For data set [1], the target named is T1, Free fatty acid receptor 4 (Mus musculus, UniProt Q7TMA4).
T1 sequence (Q7TMA4 whole entry): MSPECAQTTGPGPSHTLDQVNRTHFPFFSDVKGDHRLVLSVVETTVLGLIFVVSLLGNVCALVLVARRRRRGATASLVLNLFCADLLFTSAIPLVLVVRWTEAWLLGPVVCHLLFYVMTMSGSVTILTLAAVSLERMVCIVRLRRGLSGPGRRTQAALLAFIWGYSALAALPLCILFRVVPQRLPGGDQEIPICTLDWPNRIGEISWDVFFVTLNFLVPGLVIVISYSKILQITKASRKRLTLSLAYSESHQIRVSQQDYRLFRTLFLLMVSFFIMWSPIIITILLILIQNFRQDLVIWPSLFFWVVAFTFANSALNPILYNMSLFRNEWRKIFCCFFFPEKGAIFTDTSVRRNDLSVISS
The data set is described as follows: Agonist activity at mouse GPR120 assessed as induction of IP1 accumulation. The data set is classed as functional.

Data set [2] concerns the target T2, Free fatty acid receptor 4 (Homo sapiens, UniProt Q5NUL3).
T2 sequence (Q5NUL3 whole entry): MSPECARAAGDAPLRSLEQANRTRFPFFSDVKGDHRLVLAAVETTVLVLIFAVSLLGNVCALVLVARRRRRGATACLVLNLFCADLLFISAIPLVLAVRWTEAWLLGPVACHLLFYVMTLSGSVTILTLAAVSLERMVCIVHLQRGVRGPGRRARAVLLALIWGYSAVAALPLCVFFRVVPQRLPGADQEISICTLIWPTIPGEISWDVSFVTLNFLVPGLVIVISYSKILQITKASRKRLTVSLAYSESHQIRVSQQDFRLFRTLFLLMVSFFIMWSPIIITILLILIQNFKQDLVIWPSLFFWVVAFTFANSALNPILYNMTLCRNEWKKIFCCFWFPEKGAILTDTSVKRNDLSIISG
The experiment in a line: Agonist activity at human GPR120 assessed as induction of IP1 accumulation. The data set is classed as functional.

Data set [3] concerns the target T2, Free fatty acid receptor 4. The data set is described as follows: Agonist activity at human GPR120 assessed as induction of beta-arrestin recruitment.
In data set [4] the target is T3, Free fatty acid receptor 1 (Homo sapiens, UniProt O14842). The data set is described as follows: Agonist activity at human GPR40 assessed as induction of IP1 accumulation. The data set is classed as functional.
The target in data set [5] is T1, Free fatty acid receptor 4. The data set is described as follows: Agonist activity at mouse GPR120 assessed as induction of beta-arrestin recruitment. In general terms: Arrestin recruitment assays detect the binding of arrestin to an activated receptor.
The target of data set [6] is T1, Free fatty acid receptor 4. The data set is described as follows: Agonist activity at mouse GPR120 expressed in U2OS cells assessed as induction of beta-arrestin2 recruitment after 90 mins by luminescence assay. The data set is classed as cell-based.
Data set [7] deals with T3, Free fatty acid receptor 1. The data set is described as follows: Agonist activity at human GPR40 expressed in HEK293 cells assessed as induction of IP1 accumulation after 60 mins by HTRF assay. In kind it is functional, cell-based. Background: Time-resolved FRET reads energy transfer from a long-lived donor to a nearby acceptor.
Data set [8] deals with T1, Free fatty acid receptor 4. The experiment in a line: Agonist activity at mouse GPR120 expressed in CHOK1 cells assessed as induction of IP1 accumulation after 60 mins by HTRF assay. The data set is classed as functional, cell-based, CHO-K1.
In data set [9] the target is T2, Free fatty acid receptor 4. The experiment in a line: Agonist activity at human GPR120 short isoform expressed in CHOK1 cells assessed as induction of IP1 accumulation after 60 mins by HTRF assay. The data set is classed as functional, cell-based, CHO-K1.
For data set [10], the target named is T2, Free fatty acid receptor 4. The experiment in a line: Agonist activity at ARMS2-PK2 -tagged human GPR120 short isoform expressed in CHOK1 cells assessed as induction of beta-arrestin2 recruitment after 90 mins by luminescence assay. The data set is classed as cell-based, CHO-K1.
The subject of data set [11] is Mus musculus. The experiment in a line: Antidiabetic activity in diet-induced obese mouse assessed as insulin sensitivity by measuring reduction in glucose at 10 mg/kg, po qd administered daily via gavage for 14 days measured on day 14 post dose. In kind it is functional, organism-based.
The subject of data set [12] is Mus musculus. The experiment in a line: Antidiabetic activity in diet-induced obese mouse assessed as increase in glucose infusion rate during hyperinsulinemic euglycemic clamp procedure at 10 mg/kg, po qd administered daily via gavage measured after 28 days. The data set is classed as functional, organism-based.
Data set [13] concerns Mus musculus. The experiment in a line: Decrease in insulin levels in diet-induced obese mouse at 10 mg/kg, po qd administered daily via gavage for 28 days measured on day 28 post dose. The data set is classed as functional, organism-based.
Data set [14] relates to Mus musculus. The experiment in a line: Toxicity in diet-induced obese mouse assessed as change in body weight at 10 mg/kg, po qd administered daily via gavage for 28 days. In kind it is organism-based. As to conditions: in vivo, 672 h.
Data set [15] deals with Mus musculus. The data set is described as follows: Antidiabetic activity in diet-induced obese mouse assessed as insulin sensitivity by measuring reduction in glucose at 10 mg/kg, po qd administered daily via gavage for 28 days measured on day 28 post dose. The data set is classed as functional, organism-based.
For data set [16], the system named is Mus musculus. The data set is described as follows: Decrease in insulin levels in diet-induced obese mouse at 10 mg/kg, po qd administered daily via gavage for 14 days measured on day 14 post dose. In kind it is functional, organism-based.

In general, EC50 refers to the concentration needed to bring the measured effect to its halfway point.

Active and inactive are the calls of the source. The rule behind the calls is not given here. Bounds are passed on as bounds.

T3 sequence (O14842 whole entry): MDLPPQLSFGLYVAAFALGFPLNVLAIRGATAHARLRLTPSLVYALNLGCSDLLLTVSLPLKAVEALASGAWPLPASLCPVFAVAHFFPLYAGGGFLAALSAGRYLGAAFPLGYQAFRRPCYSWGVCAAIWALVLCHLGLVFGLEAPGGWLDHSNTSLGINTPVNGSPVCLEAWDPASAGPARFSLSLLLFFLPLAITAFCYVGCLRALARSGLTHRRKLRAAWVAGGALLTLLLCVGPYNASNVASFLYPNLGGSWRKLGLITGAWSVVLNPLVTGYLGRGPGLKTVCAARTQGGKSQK

For `O=C(O)c1ccc(C2CCN(c3cc(OC(F)(F)F)ccc3F)CC2)cc1`, the EC50 in data set [1], in data set [2], in data set [3], in data set [4] and in data set [5] was over 10000 nM throughout.

Turning to `O=C(O)CC1CCC2(CC1)CCN(c1cc(Cl)cc(Cl)c1)CC2`, the half-maximal effective concentration (EC50) came to 120 nM in [6]; 6300 nM in [7]; 51 nM in data set [8]; 220 nM in [9]; 190 nM in data set [10].

In the case of `O=C(O)CC1CCC2(CC1)CCN(c1cc(C(F)(F)F)ccn1)CC2`, the EC50 was 4200 nM in data set [6]; over 10000 nM in [7]; 1300 nM in [8]; 3100 nM in data set [9]; 9200 nM in [10].

For the molecule `COc1ccc(Cl)c(N2CCC3(CCC(CC(=O)O)CC3)CC2)c1`, the half-maximal effective concentration (EC50) in data set [6] is 5300 nM; in data set [7], over 10000 nM; in [8], 570 nM; in data set [9] it was 2100 nM; in [10], 2500 nM.

As for `O=C(O)CCC1CCC2(CC1)CCN(c1cc(OC(F)(F)F)ccc1Cl)CC2`, the EC50 in data set [9] is 2700 nM; in data set [10], 1000 nM.

Turning to `OCCC1CCC2(CC1)CCN(c1cc(OC(F)(F)F)ccc1Cl)CC2`, the EC50 in data set [9] came to 4300 nM; in [10] it was 330 nM.

Take `O=C(O)C1CCC(C2CCN(c3cc(OC(F)(F)F)ccc3F)CC2)CC1` (stereo unspecified): the EC50 in data set [1] was 1490 nM; in data set [2], 700 nM; in data set [4], over 10000 nM; in data set [5], 990 nM.

Regarding `O=C(O)CC1CCC2(CC1)CCN(c1cc(OC(F)(F)F)ccc1F)CC2`, the EC50 is 470 nM in data set [6]; over 10000 nM in data set [7]; 49 nM in [8]; 130 nM in data set [9]; 700 nM in data set [10].

Consider `O=C(O)CC1CCC2(CC1)CCN(c1ccccc1Cl)CC2`, for which the concentration giving a half-maximal response (EC50) in data set [6], in data set [7], in data set [8], in data set [9] and in [10] was over 10000 nM each time.

Regarding `O=C(O)C1CC12CCC1(CCN(c3cc(OC(F)(F)F)ccc3Cl)CC1)CC2` (stereo unspecified), the figures for the EC50 in [9] and in data set [10] were 2200 nM and 3900 nM, respectively.

For the molecule `CC1CC(CC(=O)O)CCC12CCN(c1cc(OC(F)(F)F)ccc1Cl)CC2` (stereo unspecified), the EC50 came to 440 nM in [9] and 580 nM in data set [10].

On to `O=C(O)CC1CCC2(CCN(c3cc(OC(F)(F)F)ccc3Cl)CC2)OC1` (stereo unspecified), for which the EC50 in data set [9] was 5700 nM; in data set [10] it was 2100 nM.

On to `O=C(O)C1CCN(c2ccc(-c3cc(OC(F)(F)F)ccc3F)cc2)CC1`, for which the EC50 is 89 nM in data set [1]; 300 nM in data set [2]; 1600 nM in [3]; over 10000 nM in data set [4]; 320 nM in data set [5].

`CCc1ccc(CCOc2ccc(CC3SC(=O)NC3=O)cc2)nc1` (stereo unspecified) [PIOGLITAZONE]: the outcome in the data set with Mus musculus [11], in the data set on Mus musculus [12], in the data set on Mus musculus [13], in the data set on Mus musculus [15] and with Mus musculus [16] was Active. In the data set with Mus musculus [14], the Activity result is “Toxic”.

Take `CC(C(=O)O)C1CCC2(CC1)CCN(c1cc(OC(F)(F)F)ccc1Cl)CC2` (stereo unspecified): the EC50 was 3500 nM in data set [9] and 4400 nM in data set [10].

With `CC1(C)Cc2cc(Cl)cc(N3CCC4(CCC(CC(=O)O)CC4)CC3)c2O1`, the EC50 in [6] was 4000 nM; in data set [7] it was over 10000 nM; in data set [8], 670 nM; in data set [9] it was 3300 nM; in [10], 3100 nM.

Turning to `O=C(O)CC1CCC2(CC1)CCN(c1cc(C(F)(F)F)ccc1F)CC2`, the EC50 is 3000 nM in data set [6]; over 10000 nM in data set [7]; 590 nM in data set [8]; 1200 nM in [9]; 2200 nM in [10].

Consider `O=C(O)CN1CCC2(CC1)CCN(c1cc(OC(F)(F)F)ccc1F)CC2`, for which the EC50 in data set [9] and in data set [10] was over 10000 nM each time.

Take `Cc1cc(-c2cc(OC(F)(F)F)ccc2Cl)cc(C)c1OCCCC(=O)O`: the EC50 in data set [3] is 100 nM; in data set [4] it was over 10000 nM; in [5], 35 nM.

On to `O=C(O)CC1CCC2(CC1)CCN(c1cc(F)cc(Cl)c1F)CC2`, for which the EC50 in [6] came out at 1100 nM; in data set [7], 8100 nM; in [8] it was 190 nM; in [9], 420 nM; in [10], 1400 nM.

Regarding `O=C(O)CCc1cc2cc(-c3cc(OC(F)(F)F)ccc3F)ccc2o1`, the EC50 in data set [3] turned out to be 16 nM; in data set [5] it was 21 nM.

Regarding `N#Cc1cc(SC(F)(F)F)cc(N2CCC3(CCC(CC(=O)O)CC3)CC2)c1`, the EC50 in [6] was 140 nM; in data set [7] it was over 10000 nM; in data set [8], 44 nM; in data set [9], 360 nM; in [10], 480 nM.

As for `N#Cc1ccc(OC(F)(F)F)cc1N1CCC2(CCC(CC(=O)O)CC2)CC1`, the half-maximal effective concentration (EC50) in data set [6] came out at 290 nM; in data set [7] it was 2500 nM; in data set [8] it was 66 nM; in data set [9], 200 nM; in data set [10] it was 370 nM.

In the case of `CC1CC2(CCC1CC(=O)O)CCN(c1cc(OC(F)(F)F)ccc1Cl)CC2` (stereo unspecified), the results for the EC50 in data set [9] and in [10] were 4100 nM and 2700 nM, respectively.

The record behind these values is ChEMBL document CHEMBL3872283, “Design, Synthesis, and Evaluation of Novel and Selective G-protein Coupled Receptor 120 (GPR120) Spirocyclic Agonists” (ACS Med Chem Lett, 2017).
